Data taken from PubChem BioAssay AID1845208 (Molecular Pharmacology Branch, DTP, NCI, 2023).
Several values for one entry are separate records, joined by “and”; a condition that tells them apart may be missing. Equal entries are not always repeated.

System: NCI-H196 SCLC complex tumor spheroid viability
Experiment: Anticancer human tumor NCI-H196 cell line growth inhibition;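 note: spheroids exposed to compounds for 7 days before readout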;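 for viability, T/C: 100% = DMSO vehicle control wells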
Settings: for viability, T/C: stronger effect = lower value
Description: Multicellular complex tumor spheroid response to DNA repair inhibitors in combination with DNA-damaging drugs
This study explores the anticancer activities of DNA-damaging drugs and inhibitors of DNA damage repair, both as single agents and in combinations. Complex tumor spheroids comprised of malignant cells, endothelial cells and mesenchymal stem cells served as an in vitro model for human solid tumors. This model system incorporates physiologically relevant features and patient-derived or established malignant cell lines with clinically relevant genetic alterations from many tumor types. Twenty-six patient-derived or established malignant cell lines were evaluated representing sarcoma, melanoma, small cell lung cancer (SCLC), non-small cell lung cancer (NSCLC), as well as bladder, ovarian and pancreatic cancers. The concentration ranges selected for each drug and investigational agent were based upon clinically achievable concentrations if the clinical Cmax of the agent was known.
Compounds. The drugs and compounds olaparib (NSC753686), talazoparib (NSC767125), berzosertib (NSC777718), elimusertib (NSC800525), nedisertib (NSC802822), VX-984 (NSC792969), AZD-1390 (NSC803789), temozolomide (NSC362856), topotecan (NSC609699), trabectedin (NSC813783), staurosporine (NSC755774), and gemcitabine (NSC613327) were obtained from the National Cancer Institute (NCI) Developmental Therapeutics Program Chemical Repository. The FDA-approved anticancer drug set is available from the Developmental Therapeutics Program at https://dtp.cancer.gov/organization/dscb/obtaining/available_plates.htm. […] The stock solutions were prepared in dimethyl sulfoxide (DMSO, Sigma-Aldrich, St. Louis, MO, cat. D2650) at 400-fold the tested concentration and stored at -70 degrees C. Prior to their use, the stock solutions were diluted in fresh medium and the final DMSO concentration in the assay was 0.25% (v/v). All drugs and investigational agents were tested over a range starting from a high concentration at or near the clinical Cmax and decreasing in half-log increments. If the clinical Cmax for an agent had not been determined, the highest concentration tested was 10 microM.
Cell Lines. The patient-derived cancer cell (PDC) lines: 156681-154-R-J1-PDC, 283228-195-R-J1-PDC, 287954-098-R-J1-PDC, 292921-168-R-J2-PDC, 349418-098-R-PDC, 425362-245-T-J1-PDC, 556581-035-R-J1-PDC, and BL0293-F563-PDC were received from the NCI Patient-Derived Models Repository (PDMR, https://pdmr.cancer.gov). The established cell lines HS-SY-2 (RRID:CVCL_8719), MPNST, and SYO-1 (RRID:CVCL_7146) were obtained from the Sloan Kettering Institute. The alveolar soft parts sarcoma cell line ASPS-1 (RRID:CVCL_S738) was established at the NCI and grown from internal seed stocks. The following established cell lines were purchased from the American Type Culture Collection (ATCC, Manassas, VA): G-401 (ATCC, cat. CRL-1441, RRID:CVCL_0270), SW982 (ATCC, cat. HTB-93, RRID:CVCL_1734), VA-ES-BJ (ATCC, cat. CRL-2138, RRID:CVCL_1785), NCI-H719 (ATCC, cat. CRL-5837, RRID:CVCL_1582), NCI-H196 (ATCC, cat. CRL-5823, RRID:CVCL_1509), NCI-H841 (ATCC, cat. CRL-5845, RRID:CVCL_1595), NCI-H1618 (ATCC, cat. CRL-5879, RRID:CVCL_1480), NCI-H1876 (ATCC, cat. CRL-5902, RRID:CVCL_1503), DMS 114 (ATCC, cat. CRL-2066; RRID:CVCL_1174), NCI-H211 (ATCC, cat. CRL-5824; RRID:CVCL_1529), and SW 1271 (ATCC, cat. CRL-2177, RRID:CVCL_1716). The small cell lung cancer cell line COR-L88 was purchased from Sigma-Aldrich (cat. 92031917-1VL, RRID:CVCL_1141). The non-small cell lung cancer cell lines NCI-H226 (RRID:CVCL_1544) and NCI-H322M (RRID:CVCL_1557) were established at the NCI and grown from internal seed stocks. Pooled donor human umbilical vein endothelial cells (HUVEC, Lonza, cat. CC-2519) and human mesenchymal stem cells (hMSC, Lonza, cat. PT-2501) were purchased from Lonza (Walkersville, MD).
Cell Culture. All cells were maintained in an incubator at 37 degrees C and 5% CO2 with 95% humidity. […]

[1] = curve of first compound, second compound 1 µM
[2] = curve of first compound, second compound 3.16 µM
[3] = curve of first compound, second compound 10 µM
[4] = curve of first compound, second compound 31.6 µM
[5] = curve of first compound, second compound 100 µM
[6] = second compound 1 µM, first compound 0.00949 µM
[7] = second compound 1 µM, first compound 0.03 µM
[8] = second compound 1 µM, first compound 0.0949 µM
[9] = second compound 1 µM, first compound 0.3 µM
[10] = second compound 1 µM, first compound 0.949 µM
[11] = second compound 1 µM, first compound 3 µM
[12] = second compound 3.16 µM, first compound 0.00949 µM
[13] = second compound 3.16 µM, first compound 0.03 µM
[14] = second compound 3.16 µM, first compound 0.0949 µM
[15] = second compound 3.16 µM, first compound 0.3 µM
[16] = second compound 3.16 µM, first compound 0.949 µM
[17] = second compound 3.16 µM, first compound 3 µM
[18] = second compound 10 µM, first compound 0.00949 µM
[19] = second compound 10 µM, first compound 0.03 µM
[20] = second compound 10 µM, first compound 0.0949 µM
[21] = second compound 10 µM, first compound 0.3 µM
[22] = second compound 10 µM, first compound 0.949 µM
[23] = second compound 10 µM, first compound 3 µM
[24] = second compound 31.6 µM, first compound 0.00949 µM
[25] = second compound 31.6 µM, first compound 0.03 µM
[26] = second compound 31.6 µM, first compound 0.0949 µM
[27] = second compound 31.6 µM, first compound 0.3 µM
[28] = second compound 31.6 µM, first compound 0.949 µM
[29] = second compound 31.6 µM, first compound 3 µM
[30] = second compound 100 µM, first compound 0.00949 µM
[31] = second compound 100 µM, first compound 0.03 µM
[32] = second compound 100 µM, first compound 0.0949 µM
[33] = second compound 100 µM, first compound 0.3 µM
[34] = second compound 100 µM, first compound 0.949 µM
[35] = second compound 100 µM, first compound 3 µM

For `Cn1ncnc1[C@H]1c2n[nH]c(=O)c3cc(F)cc(c23)N[C@@H]1c1ccc(F)cc1` + Cn1nnc2c(C(N)=O)ncn2c1=O, the IC50 [1] was > 3 µM, the IC50 [2] was > 3 µM and the IC50 [3] was > 3 µM. For the same compound, the IC50 [4] was > 3 µM, the IC50 [5] was > 3 µM and the viability, T/C [6] was 103%. The viability, T/C [7] was 92%, the viability, T/C [8] was 99.5% and the viability, T/C [9] was 95.5%. The viability, T/C [10] was 86.6%, the viability, T/C [11] was 94% and the viability, T/C [12] was 105%. It also gave a viability, T/C [13] of 105%, a viability, T/C [14] of 104% and a viability, T/C [15] of 103%. It also gave a viability, T/C [16] of 88.9%, a viability, T/C [17] of 99.5% and a viability, T/C [18] of 104%. For the same compound, the viability, T/C [19] was 100%, the viability, T/C [20] was 104% and the viability, T/C [21] was 90.9%. For the same compound, the viability, T/C [22] was 110%, the viability, T/C [23] was 89.2% and the viability, T/C [24] was 104%. It also gave a viability, T/C [25] of 91.6%, a viability, T/C [26] of 94.8% and a viability, T/C [27] of 93.2%. The viability, T/C [28] was 100%, the viability, T/C [29] was 91.3% and the viability, T/C [30] was 102%. The viability, T/C [31] was 94.5%, the viability, T/C [32] was 94.5% and the viability, T/C [33] was 94.8%. It also gave a viability, T/C [34] of 99% and a viability, T/C [35] of 89.5%.
With `Cc1sc2c(c1C)C(c1ccc(Cl)cc1)=NC(CC(=O)Nc1ccc(O)cc1)c1nnc(C)n1-2` (configuration not stated) + Cn1nnc2c(C(N)=O)ncn2c1=O the IC50 [1] was 0.589 µM, the IC50 [2] was 0.669 µM and the IC50 [3] was 0.716 µM. The IC50 [4] was 1.34 µM, the IC50 [5] was 2.45 µM and the viability, T/C [6] was 102%. It also gave a viability, T/C [7] of 99.5%, a viability, T/C [8] of 86.6% and a viability, T/C [9] of 68.1%. The viability, T/C [10] was 37.3%, the viability, T/C [11] was 21.1% and the viability, T/C [12] was 103%. It also gave a viability, T/C [13] of 97.4%, a viability, T/C [14] of 98.8% and a viability, T/C [15] of 75.5%. The viability, T/C [16] was 39%, the viability, T/C [17] was 23.3% and the viability, T/C [18] was 105%. For the same compound, the viability, T/C [19] was 102%, the viability, T/C [20] was 91.6% and the viability, T/C [21] was 69.1%. The viability, T/C [22] was 44%, the viability, T/C [23] was 27.6% and the viability, T/C [24] was 108%. For the same compound, the viability, T/C [25] was 106%, the viability, T/C [26] was 93.7% and the viability, T/C [27] was 87.1%. For the same compound, the viability, T/C [28] was 54.5%, the viability, T/C [29] was 34.9% and the viability, T/C [30] was 115%. For the same compound, the viability, T/C [31] was 105%, the viability, T/C [32] was 103% and the viability, T/C [33] was 85%. The viability, T/C [34] was 67% and the viability, T/C [35] was 46.4%.
In the case of `CC1COCCN1c1cc(-c2ccnn2C)c2ccnc(-c3ccn[nH]3)c2n1` (configuration not stated), the viability, T/C (compound 0.0316 µM) is reported as 85.4% and 90.9% and 88.6%, the viability, T/C (compound 0.1 µM) is reported as 76.7% and 72.3% and 79.4% and the viability, T/C (compound 0.316 µM) is reported as 65.1% and 66% and 67.1%. For the same compound, the viability, T/C (compound 1 µM) was 60.3% and 53.1% and 61.3%, the viability, T/C (compound 3.16 µM) was 53% (2×) and 49.1% and the viability, T/C (compound 10 µM) was 44.3% and 46.2% and 48.6%. For the same compound, the IC50 (curve of compound) was 4.36 µM and 2.77 µM and 7.31 µM.
In the case of `COc1ccc([C@@H](O)c2cc(-c3ncnc4cc(N5CCOCC5)ccc34)c(F)cc2Cl)nn1` + Cn1nnc2c(C(N)=O)ncn2c1=O, the IC50 [1] is reported as > 10 µM, the IC50 [2] is reported as > 10 µM and the IC50 [3] is reported as > 10 µM. For the same compound, the IC50 [4] was > 10 µM, the IC50 [5] was > 10 µM and the viability, T/C (second compound 1 µM, first compound 0.0316 µM) was 93.8%. The viability, T/C (second compound 1 µM, first compound 0.1 µM) was 97.1%, the viability, T/C (second compound 1 µM, first compound 0.316 µM) was 87.3% and the viability, T/C (second compound 1 µM, first compound 1 µM) was 73.5%. It also gave a viability, T/C (second compound 1 µM, first compound 3.16 µM) of 65.6%, a viability, T/C (second compound 1 µM, first compound 10 µM) of 52% and a viability, T/C (second compound 3.16 µM, first compound 0.0316 µM) of 98.8%. The viability, T/C (second compound 3.16 µM, first compound 0.1 µM) was 92.5%, the viability, T/C (second compound 3.16 µM, first compound 0.316 µM) was 96.7% and the viability, T/C (second compound 3.16 µM, first compound 1 µM) was 82.5%. The viability, T/C (second compound 3.16 µM, first compound 3.16 µM) was 68.9%, the viability, T/C (second compound 3.16 µM, first compound 10 µM) was 52.9% and the viability, T/C (second compound 10 µM, first compound 0.0316 µM) was 108%. For the same compound, the viability, T/C (second compound 10 µM, first compound 0.1 µM) was 97.3%, the viability, T/C (second compound 10 µM, first compound 0.316 µM) was 96.5% and the viability, T/C (second compound 10 µM, first compound 1 µM) was 80.1%. For the same compound, the viability, T/C (second compound 10 µM, first compound 3.16 µM) was 63.7%, the viability, T/C (second compound 10 µM, first compound 10 µM) was 55.5% and the viability, T/C (second compound 31.6 µM, first compound 0.0316 µM) was 109%. The viability, T/C (second compound 31.6 µM, first compound 0.1 µM) was 101%, the viability, T/C (second compound 31.6 µM, first compound 0.316 µM) was 92.5% and the viability, T/C (second compound 31.6 µM, first compound 1 µM) was 80.1%. It also gave a viability, T/C (second compound 31.6 µM, first compound 3.16 µM) of 71.4%, a viability, T/C (second compound 31.6 µM, first compound 10 µM) of 59.3% and a viability, T/C (second compound 100 µM, first compound 0.0316 µM) of 105%. The viability, T/C (second compound 100 µM, first compound 0.1 µM) was 99.9%, the viability, T/C (second compound 100 µM, first compound 0.316 µM) was 95.7% and the viability, T/C (second compound 100 µM, first compound 1 µM) was 91.2%. The viability, T/C (second compound 100 µM, first compound 3.16 µM) was 70.3% and the viability, T/C (second compound 100 µM, first compound 10 µM) was 57%.
